Assay results as given in patent US9629892B2, “Treatment of penetrative injury to the brain” (NoNO Inc., priority 2010, dated 2017).
Entries after “also recorded” stand apart in the source; their conditions may differ.

Key:
[1] = molecular target: binding of NMDAR 2B to PSD95 (Homo sapiens, UniProt P78352); details: reported by Bach; cited from earlier work
[2] = system: PBBI rats; experiment: Neuroscore after PBBI injury; format: in vivo, rat; details: Study 1, 0.5 mg/kg i.v. 8 minute infusion 30 minutes after PBBI, 72 hours post-PBBI, vs PBBI/veh
Method: (§1) Body weight was assessed at time 0 (baseline), 24, 72 h and 7 days post injury. Body temperature was assessed at time 0, 30 min (prior to treatment), 2, 24, 72 h, and 7 days post injury. Neuroscore was assessed at 0, 30 min (prior to treatment), 24, 72 h, 7 days post injury. Balance beam was assessed at time 0, 3, and 7 days post injury. Rotarod was assessed at time 0 and 7 days post injury.
Columns=means; error bars=SEM; *p<0.05 compared to PBBI; †p<0.05 compared to 0.05 mg/kg Tat-NR2B9c; #p<0.05 compared to 0.275 mg/kg Tat-NR2B9c.

[3] = system: PBBI rats; experiment: Balance beam footfaults after PBBI injury; format: in vivo, rat; details: for footfaults per beam segment contralateral to site of injury / rats unable to cross the beam (assigned maximal footfault scores): 3 days post-PBBI; for rats unable to cross the beam: 7 days post-PBBI
[4] = system: PBBI rats; experiment: Fixed-speed rotarod task after PBBI injury; format: in vivo, rat; details: for rotarod task recovery: Study 1, 0.50 mg/kg, 7 days post-PBBI
Method: as §1
FIGS. 3A and B show dose-response studies on a rotarod. Rats were trained to criteria on the fixed-speed version of the rotarod task prior to PBBI and tested at 7 days post-PBBI. […] Columns=means; error bars=SEM; *p<0.05 compared to PBBI

[5] = system: PBBI rats; experiment: Morris Water Maze (MWM) task after PBBI; format: in vivo, rat; details: multiple dosing (four injections at 30 minutes, 24, 48 and 72 hours post-PBBI; 0.5 and 5 mg/kg); at 5 or more days
Method: FIGS. 6A-D show the effects of multiple dosing regimes on neuroscore, rotarod and MWM performance Animals were given four injections of Tat-NR2B9c post-PBBI at 30 minutes, 24 hours, 48 hours and 72 hours.

[6] = system: PBBI rats; experiment: Body temperature after PBBI and dosing; format: in vivo, rat; details: approximately 90 minutes following PBBI (60 minutes following dosing)
[7] = system: PBBI rats; experiment: PBBI neuropathology: lesion volume in brain sections (H&E, TTC staining); details: for overall (total) lesion volume: Study 1, H&E stained sections, 7 days
Method: Male Sprague-Dawley rats (250-300 g) were subjected to a simulated ballistic wound to the right frontal hemisphere implemented by an inflatable penetrating probe. Three levels of injury severity were compared to control animals. Neurological and physiological outcome was assessed over a 3-day recovery period and brain tissue collected at 72 h for histopathological evaluation.
Tat-NR2B9c was administered i.v. in the jugular vein by an 8 minute infusion 30 minutes after inducing brain injury. Rats were sacrificed for histologic examination after 7 days. The dose of Tat-NR2B9c was Study I: 0.5 and 5.0 mg/ml/kg and Study II: 0.05, 0.275, and 0.5 mg/ml/kg. The rats were subject to the following treatments in Study I and II (sham=rat not subject to ballistic injury, PBBI=penetrative ballistic brain injury, veh=vehicle).
Study 1 evaluated two concentrations of Tat-NR2B9c (0.5 mg/kg and 5.0 mg/kg) (n=10 each group) with a survival period of 1 week. […] Behavioral and histological endpoints for both experiments included neurological assessments on neuroscore, balance beam, and rotarod tests, and lesion reconstruction on H&E stained sections.
As with the previous experiments, Tat-NR2B9c was administered as a slow bolus (8 minute) 30 minutes after PBBI.

[8] = system: cerebral ischemia; details: reported in WO 2008/014917; cited from earlier work

Chain of binding of NMDAR 2B to PSD95 (P78352 whole entry, the tested form may be a part): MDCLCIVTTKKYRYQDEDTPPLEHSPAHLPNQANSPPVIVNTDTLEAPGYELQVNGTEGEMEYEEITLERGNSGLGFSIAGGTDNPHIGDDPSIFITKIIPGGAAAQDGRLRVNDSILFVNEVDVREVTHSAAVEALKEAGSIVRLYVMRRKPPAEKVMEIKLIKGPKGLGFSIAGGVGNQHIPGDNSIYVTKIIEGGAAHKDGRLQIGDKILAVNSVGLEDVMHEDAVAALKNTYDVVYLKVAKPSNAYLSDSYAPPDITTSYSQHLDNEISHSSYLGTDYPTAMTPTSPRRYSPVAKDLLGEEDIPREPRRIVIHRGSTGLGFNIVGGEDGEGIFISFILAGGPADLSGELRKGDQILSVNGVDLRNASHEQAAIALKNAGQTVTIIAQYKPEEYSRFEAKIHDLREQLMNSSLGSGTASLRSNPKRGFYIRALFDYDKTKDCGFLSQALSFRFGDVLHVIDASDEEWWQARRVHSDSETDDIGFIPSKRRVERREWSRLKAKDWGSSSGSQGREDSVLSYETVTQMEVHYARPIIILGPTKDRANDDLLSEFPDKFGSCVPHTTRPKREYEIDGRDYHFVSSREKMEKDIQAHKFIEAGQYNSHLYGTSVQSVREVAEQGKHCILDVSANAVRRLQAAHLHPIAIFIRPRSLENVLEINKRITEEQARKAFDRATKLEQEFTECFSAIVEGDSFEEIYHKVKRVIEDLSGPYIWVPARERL

IESDV (listed as Homo sapiens)
inhibition of binding of NMDAR 2B to PSD95 [1]: effective in inhibiting binding of NMDAR 2B to PSD95

YGRKKRRQRRRKLSSIESDV [Tat-NR2B9c]
neuroscore (PBBI-induced neurological deficits) [2]: significant, reduction in PBBI-induced neurological deficits; also recorded: significantly improved neuroscore | footfaults per beam segment contralateral to site of injury ([3]; Study 1, 0.5 mg/kg, vs PBBI rats): made significantly fewer foot faults than the PBBI rats | footfaults per beam segment contralateral to site of injury ([3]; Study 1, 5.0 mg/kg, vs PBBI rats): made significantly fewer foot faults than the PBBI rats | rats unable to cross the beam (assigned maximal footfault scores) ([3]; Study 1, high-dose, of 10 animals per group): two | rats unable to cross the beam ([3]; Study 1, high-dose): one | rats unable to cross the beam (assigned maximal footfault scores) ([3]; Study 1, low-dose, of 10 animals per group): two | footfaults per beam segment contralateral to site of injury ([3]; Study 2, 0.275 mg/kg, narrowest beam segment, vs PBBI animals): made fewer footfaults than the PBBI animals | footfaults per beam segment contralateral to site of injury ([3]; Study 2, 0.50 mg/kg, narrowest beam segment, vs PBBI animals): made fewer footfaults than the PBBI animals | rats unable to cross the beam (assigned maximal footfault scores) ([3]; Study 2, high-dose, of 10-11 animals per group): one | rats unable to cross the beam (assigned maximal footfault scores) ([3]; Study 2, low-dose, of 10-11 animals per group): three | rats unable to cross the beam ([3]; Study 2, low-dose): one | rats unable to cross the beam (assigned maximal footfault scores) ([3]; Study 2, medium-dose, of 10-11 animals per group): one | mean rotarod latencies across speeds relative to vehicle-treated PBBI rats ([4]; 20 mg/kg single slow bolus 30 minutes after PBBI): > 2 fold | mean rotarod latency across speeds ([4]; 20 mg/kg, p<0.05 vs PBBI/veh): 29 ± 3 s | rotarod performance ([4]; Study 1 (FIG. 3A), 0.5 mg/kg, summary statement): significantly improved | rotarod task recovery ([4]; higher speeds (20-25 rpm)): but not at higher speeds | rotarod task recovery ([4]; two lower speeds (10-15 rpm)): promoted significant recovery (to SHAM levels) | MWM performance [5]: possibly an improvement in the MWM performance | hypothermic effect (measured in the rectum) [6]: about 2 degrees C. | stability of lyophilized composition (lyophilized at 1-50 mg/ml in normal saline, with or without excipients): stable at −20 °C or at room temperature | period of stability (insignificant degradation or aggregation of the peptide) (peptide in normal saline at 10-30 mg/ml, stored frozen): two | total lesion volume ([7]; 20 mg/kg, TTC staining, p<0.05 vs PBBI/veh): 37±4 mm^3 | reduction in total lesion volume ([7]; 20 mg/kg, TTC staining, vs PBBI/veh): 33% | overall (total) lesion volume ([7]; 0.5 mg/kg): did not significantly reduce overall lesion volume; also recorded: did not reach a significant neuroprotective effect on total lesion volume | overall (total) lesion volume ([7]; 5.0 mg/kg): did not significantly reduce overall lesion volume; also recorded: did not reach a significant neuroprotective effect on total lesion volume

vdseissllurrqrrkkrgyin [retro-inverso analog of Tat-NR2B9c]
inhibition of cerebral ischemia [8]: effective inhibiting cerebral ischemia
